Patent publication US10420341B2, “Herbicidal phenylpyrimidines” (BASF SE, priority 2015, dated 2019)

What was measured:
ABUTH = assay: greenhouse post-emergence herbicidal test; type: in vivo, Abutilon theophrasti; details: post-emergence method, scale from 0 to 100
How it was run: (§1)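 Post-emergence; plants at 3–15 cm, treated with aqueous suspension/emulsion of compound. 10–25 °C or 20–35 °C per species, 2–4 wk. Score 0 (no damage) to 100 (aerial parts destroyed).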

SETFA = assay: greenhouse pre-emergence herbicidal test; type: in vivo, Setaria faberi; details: pre-emergence method, scale from 0 to 100
Excerpt: The seeds of the test plants were sown separately for each species. For the pre-emergence treatment, the active ingredients, which had been suspended or emulsified in water, were applied directly after sowing by means of finely distributing nozzles. The containers were irrigated gently to promote germination and growth and subsequently covered with transparent plastic hoods until the plants had rooted. This cover caused uniform germination of the test plants, unless this had been impaired by the active ingredients. Depending on the species, the plants were kept at 10-25° C. or 20-35° C., respectively. The test period extended over 2 to 4 weeks. During this time, the plants were tended, and their response to the individual treatments was evaluated. Evaluation was carried out using a scale from 0 to 100. 100 means no emergence of the plants, or complete destruction of at least the aerial moieties, and 0 means no damage, or normal course of growth. […] The plants used in the greenhouse experiments were of the following species: [table]

ECHCG [1] = assay: greenhouse post-emergence herbicidal test; type: in vivo, Echinocloa crus-galli; details: post-emergence method, scale from 0 to 100
How it was run: as §1

APESV = assay: greenhouse pre-emergence herbicidal test; type: in vivo, Apera spica-venti; details: pre-emergence method, scale from 0 to 100
How it was run: (§2)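 After each species was sown separately, test compounds in water were applied at once with finely distributing nozzles. Containers were then irrigated and covered until rooting, held at species-dependent temperatures (10-25° C. or 20-35° C.), and assessed over 2 to 4 weeks on a 0-100 injury scale.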

AMARE = assay: greenhouse post-emergence herbicidal test; type: in vivo, Amaranthus retroflexus; details: post-emergence method, scale from 0 to 100
How it was run: as §1

LOLMU = assay: greenhouse post-emergence herbicidal test; type: in vivo, Lolium multiflorum; details: post-emergence method, application rate 500 g/ha, scale from 0 to 100
Excerpt: (§3) The seeds of the test plants were sown separately for each species. For the post-emergence treatment, the test plants were first grown to a height of 3 to 15 cm, depending on the plant habit, and only then treated with the active ingredients which had been suspended or emulsified in water. For this purpose, the test plants were either sown directly and grown in the same containers, or they were first grown separately as seedlings and transplanted into the test containers a few days prior to treatment. Depending on the species, the plants were kept at 10-25° C. or 20-35° C., respectively. The test period extended over 2 to 4 weeks. During this time, the plants were tended, and their response to the individual treatments was evaluated. Evaluation was carried out using a scale from 0 to 100. 100 means no emergence of the plants, or complete destruction of at least the aerial moieties, and 0 means no damage, or normal course of growth. […] The plants used in the greenhouse experiments were of the following species: [table]

ECHCG [2] = assay: greenhouse pre-emergence herbicidal test; type: in vivo, Echinocloa crus-galli; details: pre-emergence method, scale from 0 to 100
How it was run: as §2

SETVI = assay: greenhouse post-emergence herbicidal test; type: in vivo, Setaria viridis; details: post-emergence method, scale from 0 to 100
Excerpt: as §3

ALOMY = assay: greenhouse post-emergence herbicidal test; type: in vivo, Alopercurus myosuroides; details: post-emergence method, application rate 1000 g/ha, scale from 0 to 100
How it was run: as §1

POLCO = assay: greenhouse post-emergence herbicidal test; type: in vivo, Polygonum convolvulus; details: post-emergence method, application rate 500 g/ha, scale from 0 to 100
How it was run: as §1

AVEFA = assay: greenhouse post-emergence herbicidal test; type: in vivo, Avena fatua; details: post-emergence method, application rate 1000 g/ha, scale from 0 to 100
How it was run: as §1

## O=C(O)c1nc(C2CCC2)ncc1-c1ccccc1Cl [example 2, 5-(2-Chlorophenyl)-2-cyclobutyl-pyrimidine-4-carboxylate]
ABUTH; application rate 1000 g/ha
  herbicidal activity against ABUTH: good (A good herbicidal activity is given at values of at least 70)
SETFA; application rate 1000 g/ha
  herbicidal activity against SETFA: good (A good herbicidal activity is given at values of at least 70)
ECHCG [1]; application rate 1000 g/ha
  herbicidal activity against ECHCG: good (A good herbicidal activity is given at values of at least 70)

## CCc1ncc(-c2cc(C)ccc2C)c(C(=O)O)n1 [example 9]
ABUTH; application rate 1000 g/ha
  herbicidal activity against ABUTH: very good (a very good herbicidal activity is given at values of at least 85)
APESV; application rate 1000 g/ha
  herbicidal activity against APESV: very good (a very good herbicidal activity is given at values of at least 85)
AMARE; application rate 1000 g/ha
  herbicidal activity against AMARE: good (A good herbicidal activity is given at values of at least 70)
SETFA; application rate 1000 g/ha
  herbicidal activity against SETFA: very good (a very good herbicidal activity is given at values of at least 85)

## Cc1ccc(C)c(-c2cnc(C(C)C)nc2C(=O)O)c1 [example 34]
APESV; application rate 500 g/ha
  herbicidal activity against APESV: very good (a very good herbicidal activity is given at values of at least 85)
LOLMU
  herbicidal activity against LOLMU: good (A good herbicidal activity is given at values of at least 70)
ECHCG [1]; application rate 500 g/ha
  herbicidal activity against ECHCG: very good (a very good herbicidal activity is given at values of at least 85)
ECHCG [2]; application rate 500 g/ha
  herbicidal activity against ECHCG: very good (a very good herbicidal activity is given at values of at least 85)

## COC(=O)c1nc(C(C)C)ncc1-c1ccccc1C [example 37]
SETFA; application rate 1000 g/ha
  herbicidal activity against SETFA: very good (a very good herbicidal activity is given at values of at least 85)
ECHCG [1]; application rate 1000 g/ha
  herbicidal activity against ECHCG: very good (a very good herbicidal activity is given at values of at least 85)
ECHCG [2]; application rate 1000 g/ha
  herbicidal activity against ECHCG: very good (a very good herbicidal activity is given at values of at least 85)

## CCOC(=O)c1nc(OC)ncc1-c1cc(C)c(F)cc1C [example 64]
SETVI; application rate 1000 g/ha
  herbicidal activity against SETVI: very good (a very good herbicidal activity is given at values of at least 85)
ALOMY
  herbicidal activity against ALOMY: very good (a very good herbicidal activity is given at values of at least 85)
AMARE; application rate 1000 g/ha
  herbicidal activity against AMARE: very good (a very good herbicidal activity is given at values of at least 85)

## CSc1ncc(-c2cc(C)ccc2Cl)c(C(=O)O)n1 [example 86]
SETFA; application rate 1000 g/ha
  herbicidal activity against SETFA: good (A good herbicidal activity is given at values of at least 70)
ECHCG [2]; application rate 1000 g/ha
  herbicidal activity against ECHCG: good (A good herbicidal activity is given at values of at least 70)

## CSc1ncc(-c2ccc(C#N)cc2C)c(C(=O)O)n1 [example 96]
SETVI; application rate 2000 g/ha
  herbicidal activity against SETVI: very good (a very good herbicidal activity is given at values of at least 85)
AMARE; application rate 2000 g/ha
  herbicidal activity against AMARE: very good (a very good herbicidal activity is given at values of at least 85)

## CSc1ncc(-c2ccc(C(F)(F)F)cc2C)c(C(=O)O)n1 [example 99]
SETVI; application rate 2000 g/ha
  herbicidal activity against SETVI: very good (a very good herbicidal activity is given at values of at least 85)
AMARE; application rate 2000 g/ha
  herbicidal activity against AMARE: very good (a very good herbicidal activity is given at values of at least 85)
ECHCG [1]; application rate 2000 g/ha
  herbicidal activity against ECHCG: good (A good herbicidal activity is given at values of at least 70)

## CSc1ncc(-c2ccccc2S(C)(=O)=O)c(C(=O)O)n1 [example 114]
SETFA; application rate 2000 g/ha
  herbicidal activity against SETFA: very good (a very good herbicidal activity is given at values of at least 85)

## Cc1ccccc1-c1cnc(S(C)(=O)=O)nc1C(=O)O [example 127]
SETFA; application rate 2000 g/ha
  herbicidal activity against SETFA: good (A good herbicidal activity is given at values of at least 70)

## Cc1cc(F)c(-c2cnc(C3CC3)nc2C(=O)O)cc1Cl [example 137]
SETVI; application rate 1000 g/ha
  herbicidal activity against SETVI: very good (a very good herbicidal activity is given at values of at least 85)
AMARE; application rate 1000 g/ha
  herbicidal activity against AMARE: very good (a very good herbicidal activity is given at values of at least 85)

## Cc1ccc(Cl)c(-c2cnc(C3CC3)nc2C(=O)O)c1 [example 144]
APESV; application rate 500 g/ha
  herbicidal activity against APESV: very good (a very good herbicidal activity is given at values of at least 85)
SETVI; application rate 500 g/ha
  herbicidal activity against SETVI: very good (a very good herbicidal activity is given at values of at least 85)
POLCO
  herbicidal activity against POLCO: very good (a very good herbicidal activity is given at values of at least 85)
ECHCG [2]; application rate 500 g/ha
  herbicidal activity against ECHCG: very good (a very good herbicidal activity is given at values of at least 85)

## COC(=O)c1nc(C2CC2)ncc1-c1c(Br)ccc(C)c1F [example 198]
ABUTH; application rate 500 g/ha
  herbicidal activity against ABUTH: very good (a very good herbicidal activity is given at values of at least 85)
APESV; application rate 500 g/ha
  herbicidal activity against APESV: very good (a very good herbicidal activity is given at values of at least 85)
SETVI; application rate 500 g/ha
  herbicidal activity against SETVI: very good (a very good herbicidal activity is given at values of at least 85)
ECHCG [2]; application rate 500 g/ha
  herbicidal activity against ECHCG: very good (a very good herbicidal activity is given at values of at least 85)

## COC(=O)c1nc(C2CC2)ncc1-c1ccccc1[N+](=O)[O-] [example 223]
APESV; application rate 1000 g/ha
  herbicidal activity against APESV: very good (a very good herbicidal activity is given at values of at least 85)
SETVI; application rate 1000 g/ha
  herbicidal activity against SETVI: very good (a very good herbicidal activity is given at values of at least 85)
ECHCG [1]; application rate 1000 g/ha
  herbicidal activity against ECHCG: very good (a very good herbicidal activity is given at values of at least 85)
ECHCG [2]; application rate 1000 g/ha
  herbicidal activity against ECHCG: very good (a very good herbicidal activity is given at values of at least 85)

## COC(=O)c1nc(C2CCC2)ncc1-c1ccccc1C [example 264]
ABUTH; application rate 1000 g/ha
  herbicidal activity against ABUTH: very good (a very good herbicidal activity is given at values of at least 85)
APESV; application rate 1000 g/ha
  herbicidal activity against APESV: good (A good herbicidal activity is given at values of at least 70)
AMARE; application rate 1000 g/ha
  herbicidal activity against AMARE: very good (a very good herbicidal activity is given at values of at least 85)
SETFA; application rate 1000 g/ha
  herbicidal activity against SETFA: very good (a very good herbicidal activity is given at values of at least 85)

## Cc1ccccc1-c1cnc(-c2ccccc2)nc1C(=O)O [example 271]
ABUTH; application rate 500 g/ha
  herbicidal activity against ABUTH: very good (a very good herbicidal activity is given at values of at least 85)
SETFA; application rate 500 g/ha
  herbicidal activity against SETFA: good (A good herbicidal activity is given at values of at least 70)
ECHCG [1]; application rate 500 g/ha
  herbicidal activity against ECHCG: very good (a very good herbicidal activity is given at values of at least 85)

## COC(=O)c1nc(C2CC2)ncc1-c1c(Cl)cccc1C(F)(F)F [example 302]
AMARE; application rate 1000 g/ha
  herbicidal activity against AMARE: very good (a very good herbicidal activity is given at values of at least 85)
SETFA; application rate 1000 g/ha
  herbicidal activity against SETFA: very good (a very good herbicidal activity is given at values of at least 85)
ECHCG [1]; application rate 1000 g/ha
  herbicidal activity against ECHCG: very good (a very good herbicidal activity is given at values of at least 85)

## CCOc1cccc(Br)c1-c1cnc(C2CC2)nc1C(=O)O [example 303]
APESV; application rate 1000 g/ha
  herbicidal activity against APESV: very good (a very good herbicidal activity is given at values of at least 85)
SETFA; application rate 1000 g/ha
  herbicidal activity against SETFA: very good (a very good herbicidal activity is given at values of at least 85)
ECHCG [1]; application rate 1000 g/ha
  herbicidal activity against ECHCG: very good (a very good herbicidal activity is given at values of at least 85)

## O=C(O)c1nc(C2CC2)ncc1-c1c(F)cccc1I [example 317]
APESV; application rate 1000 g/ha
  herbicidal activity against APESV: very good (a very good herbicidal activity is given at values of at least 85)
SETVI; application rate 1000 g/ha
  herbicidal activity against SETVI: very good (a very good herbicidal activity is given at values of at least 85)
ALOMY
  herbicidal activity against ALOMY: very good (a very good herbicidal activity is given at values of at least 85)
AVEFA
  herbicidal activity against AVEFA: very good (a very good herbicidal activity is given at values of at least 85)
ECHCG [2]; application rate 1000 g/ha
  herbicidal activity against ECHCG: very good (a very good herbicidal activity is given at values of at least 85)
